Laboratory results published in patent EP0494622A1, “Bridged cyclic ketal derivatives” (priority 1991, dated 1992).
Converted amounts (≈) assume the structure as drawn. Counter-ions that a name gives are not always drawn.

What was measured:
[1] = system: a variety of clinically relevant pathogens; test: In vitro antifungal activity: minimum inhibitory concentration (MIC) on agar plates containing the test compound; format: cell-based; details: Candida albicans, read-out: MICs
Method: The in vitro evaluation of the anti-fungal activity of compounds of the invention can be performed by determining the minimum inhibitory concentration (MIC) which is the concentration of the test compound in a suitable medium at which growth of a particular microorganism fails to occur. […] A. […] [¹⁴C] Squalene was separated from unreacted substrate on thin layer chromatography plates and determined by liquid scintillation counting. Inhibition of squalene synthase was quantified by incubating rat liver homogenate with various concentrations of the test compound in the presence of[2-¹⁴C] farnesylpyrophosphate. The concentration of compound giving 50% inhibition of [¹⁴C] squalene production in a 30 minute assay was taken as the IC₅₀ value. […] In practice, a series of agar plates, each having the test compound incorporated at a particular concentration, was inoculated with a standard culture of a clinically relevant pathogen, for example Candida albicans, and each plate was then incubated at 37 °C for 24 to 48 hours depending on the pathogen. The plates were then examined for the presence or absence of growth of the fungus and the appropriate MIC was noted.

squalene synthase = target: T1, squalene synthase (Rattus norvegicus, UniProt Q02769); test: Inhibition of squalene synthase in rat liver homogenate with [2-14C]farnesylpyrophosphate as substrate; [14C]squalene separated by TLC and counted by liquid scintillation; format: biochemical; details: concentration giving 50% inhibition of [14C]squalene production in a 30 minute assay, read-out: IC₅₀
T1 construct: from tissue; host or cells: rat liver homogenate
T1 sequence (Q02769 1-416): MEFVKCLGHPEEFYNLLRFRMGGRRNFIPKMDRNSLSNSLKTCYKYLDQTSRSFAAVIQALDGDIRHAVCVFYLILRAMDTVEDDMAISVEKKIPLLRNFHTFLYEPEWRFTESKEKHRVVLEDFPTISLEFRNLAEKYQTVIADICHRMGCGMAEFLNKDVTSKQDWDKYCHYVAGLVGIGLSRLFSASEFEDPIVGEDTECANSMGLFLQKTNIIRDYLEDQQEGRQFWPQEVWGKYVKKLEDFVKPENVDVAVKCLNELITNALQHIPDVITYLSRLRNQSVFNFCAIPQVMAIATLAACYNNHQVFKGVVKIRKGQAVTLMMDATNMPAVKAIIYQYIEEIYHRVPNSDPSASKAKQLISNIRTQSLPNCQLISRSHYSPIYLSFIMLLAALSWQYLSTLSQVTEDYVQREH
Method: Acta, Volume 877, 50-60 (1986) and modified to include measurement of cholesterol by high performance liquid chromatography (h.p.l.c.).
[¹⁴C] Squalene was separated from unreacted substrate on thin layer chromatography plates and determined by liquid scintillation counting. Inhibition of squalene synthase was quantified by incubating rat liver homogenate with various concentrations of the test compound in the presence of[2-¹⁴C] farnesylpyrophosphate. The concentration of compound giving 50% inhibition of [¹⁴C] squalene production in a 30 minute assay was taken as the IC₅₀ value. […] In practice, a series of agar plates, each having the test compound incorporated at a particular concentration, was inoculated with a standard culture of a clinically relevant pathogen, for example Candida albicans, and each plate was then incubated at 37 °C for 24 to 48 hours depending on the pathogen. The plates were then examined for the presence or absence of growth of the fungus and the appropriate MIC was noted. In this test the title compounds in Examples 19, Example 3 Compound 1 and Example 7 Compound 1 had MICs in the range of 1 to 31 µg/ml against a variety of clinically relevant pathogens.

Compound	MIC [1] [µg/mL]	IC50 (squalene synthase) [nM]
C=C(CC[C@]12OC[C@@](O)(C(=O)O)[C@](C(=O)O)(O1)[C@H](OC(=O)/C=C/[C@@H](C)C[C@@H](C)CC)[C@H]2O)[C@@H](OC(C)=O)[C@H](C)Cc1ccccc1 (relative stereo) [Example 3 Compound 1, [1S-[1α(4R*,5S*),4β,5α,6α(2E,4R*,6R*),7β]] 1-(4-Acetyloxy-5-methyl-3-methylene-6-phenylhexyl)-4,6,7-trihydroxy-2,8-dioxabicyclo [3.2.1]octane-4,5-dicarboxylic acid, 6-(4,6-dimethyl-2-octenoate)]	1 to 31 (≈ 1.55 to 47.9 µM)	< 100
C=C(CC[C@]12OC[C@@](O)(C(=O)OC)[C@](C(=O)O)(O1)[C@H](OC(=O)/C=C/[C@@H](C)C[C@@H](C)CC)[C@H]2O)[C@@H](OC(C)=O)[C@H](C)Cc1ccccc1 (relative stereo) [Example 3 Compound 2, [1S-[1α(4R*,5S*),4β,5α,6α(2E,4R*,6R*),7β]] 1-(4-acetyloxy-5-methyl-3-methylene-6-phenylhexyl)-4,6,7-trihydroxy-2,8-dioxabicyclo[3.2.1]octane-4,5-dicarboxylic acid, 6-(4,6-dimethyl-2-octenoate), 4-methyl ester]		< 100
C=C(CC[C@]12O[C@H](CO)[C@@](O)(C(=O)O)[C@](C(=O)O)(O1)[C@H](OC(=O)/C=C/[C@@H](C)C[C@@H](C)CC)[C@H]2O)[C@@H](OC(C)=O)[C@H](C)Cc1ccccc1 (relative stereo) [Example 7 Compound 1, [1S-[1α(4R*,5S*),3α,4β,5α,6α(2E,4R*,6R*),7β]] 1-(4-Acetyloxy-5-methyl-3-methylene-6-phenylhexyl)-3-hydroxymethyl-4,6,7-trihydroxy-2,8-dioxabicyclo[3.2.1]octane-4,5-dicarboxylic acid, 6-(4,6-dimethyl-2-octenoate)]	1 to 31 (≈ 1.48 to 45.8 µM)	< 100
C=C(CC[C@]12O[C@H](CO)[C@@](O)(C(=O)OC)[C@](C(=O)O)(O1)[C@H](OC(=O)/C=C/[C@@H](C)C[C@@H](C)CC)[C@H]2O)[C@@H](OC(C)=O)[C@H](C)Cc1ccccc1 (relative stereo) [Example 7 Compound 2, [1S-[1α(4R*,5S*),3α,4β,5α,6α(2E,4R*,6R*),7β]] 1-(4-acetyloxy-5-methyl-3-methylene-6-phenylhexyl)-3-hydroxymethyl-4,6,7-trihydroxy-2,8-dioxabicyclo[3.2.1]octane-4,5-dicarboxylic acid, 6-(4,6-dimethyl-2-octenoate),4-methyl ester]		< 100
C=C(CC[C@]12O[C@H](CO)[C@@](O)(C(=O)O)[C@](C(=O)O)(O1)[C@H](OC(=O)CC[C@@H](C)C[C@@H](C)CC)[C@H]2O)[C@@H](OC(C)=O)[C@H](C)Cc1ccccc1 (relative stereo) [Example 10, [1S-[1α(4R*,5S*),3α,4β,5α,6α(4S*,6R*),7β]] 1-(4-Acetyloxy-5-methyl-3-methylene-6-phenylhexyl)-3-hydroxymethyl-4,6,7-trihydroxy-2,8-dioxabicyclo[3.2.1]octane-4,5-dicarboxylic acid, 6-(4,6-dimethyloctanoate), dipotassium salt]		< 100
C=C(CC[C@]12O[C@H](CO)[C@@](O)(C(=O)O)[C@](C(=O)O)(O1)[C@H](OC(=O)/C=C/[C@@H](C)C[C@@H](C)CC)[C@H]2O)[C@@H](O)[C@H](C)Cc1ccccc1 (relative stereo) [Example 11, [1S-[1α(4R*,5S*),3α,4β,5α,6α(2E,4R*,6R*),7β]] 1-(4-Hydroxy-5-methyl-3-methylene-6-phenylhexyl)-3-hydroxymethyl-4,6,7-trihydroxy-2,8-dioxabicyclo[3.2.1]octane-4,5-dicarboxylic acid, 6-(4,6-dimethyl-2-octenoate)]		< 100
C=C(CC[C@]12O[C@H](CO)[C@@](O)(C(=O)O)[C@](C(=O)O)(O1)[C@H](OC(=O)CC[C@@H](C)C[C@@H](C)CC)[C@H]2O)[C@@H](O)[C@H](C)Cc1ccccc1 (relative stereo) [Example 25, [1S-[1α(4R*,5S*),3α,4β,5α,6α(4S*,6R*),7β]] 1-(4-Hydroxy-5-methyl-3-methylene-6-phenylhexyl)-3-hydroxymethyl-4,6,7-trihydroxy-2,8-dioxabicyclo[3.2.1]octane-4,5-dicarboxylic acid, 6-(4,6-dimethyloctanoate)]		< 100
